Substitutions are numbered along the chain they refer to. Structures can show the parent of a compound that is named as a salt.
How the values were obtained:
human chymase = biological target: T1, human chymase (Homo sapiens, UniProt P23946); assay: Human chymase inhibitory activity (in vitro, angiotensin I substrate); format: biochemical; conditions: for IC50: recombinant human chymase (COS7 cells), substrate angiotensin I, 37° C., read-out: Human Chymase Inhibition (IC50:nM)
T1 construct: made in house; host or cells: COS7 cells (transient transfection)
T1 sequence (P23946 22-247): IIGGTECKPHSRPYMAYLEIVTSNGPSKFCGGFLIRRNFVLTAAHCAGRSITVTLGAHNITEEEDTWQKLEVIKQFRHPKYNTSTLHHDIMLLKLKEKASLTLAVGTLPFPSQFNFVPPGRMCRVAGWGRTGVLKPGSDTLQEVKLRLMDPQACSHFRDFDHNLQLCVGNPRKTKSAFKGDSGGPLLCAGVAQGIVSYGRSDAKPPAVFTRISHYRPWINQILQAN
Experimental: (§1) The inhibitory activities of the compounds on monkey chymase and human chymase were tested in vitro. The test compounds are as shown by Compound Nos. in Tables 13 and 14.
Preparation of Human Chymase
Human chymase was produced in mammalian cells using a recombinant DNA technique.
Construction of a human prochymase expression plasmid was performed in the following manner. Briefly, single stranded cDNA was synthesized from human heart mRNA (Clontech Laboratories, Inc.). Polymerase chain reaction amplification was carried out using the cDNA as a template and appropriate pairs of primers. The primer sequences were determined based on the human preprochymase. The amplified product was cloned into the plasmid pUC18, and then recloned into the plasmid pBluescript II KS(+) (Stratagene). Finally, the DNA fragment carrying the entire protein-coding sequences of the human preprochymase was inserted to a transient expression vector by the usual method to yield the human prochymase expression plasmid.
Transfection of COS7 cells with the human prochymase expression plasmid was carried out using the FuGene™ 6 transfection reagent (Boehringer Mannheim). About 7 hours after exposure to DNA, the culture medium was changed to a serum-free one. The culture supernatant was collected after 2 days culture.
Human prochymase was purified from the culture supernatant using a heparin actigel column as described above in the preparation of monkey chymase.
In order to produce active chymase, the human prochymase was incubated with dipeptidylpeptidase I (Sigma). The resultant active human chymase was purified using a heparin actigel column as described above. The active human chymase was eluted with 0.01 mol/1000 ml sodium phosphate buffer pH 7.4 containing 2 mol/1000 ml NaCl.
(§2) Measurement of Chymase Inhibitory Activity (In Vitro Assay)
(§3) The chymase inhibitory activities of compounds I-A of this invention were measured according to the following method. Briefly, the purified monkey or human chymase was diluted to an appropriate concentration with 0.01 mol/1000 ml sodium phosphate buffer, pH 7.4, containing 2 mol/1000 ml KCl and 0.1% Nonidet P-40 and used as enzyme solution. Angiotensin I (Peptide Institute Inc.) was diluted with water to 5 mg/ml and used as substrate solution. Test compounds were serially diluted with 10% DMSO. […] After pre-incubation of the mixture at 37° C., 20 μl of the substrate solution was added to the enzyme-test compound mixture and the new mixture was incubated at 37° C. Fifty μl of 30% trichloroacetic acid solution was finally added to stop the enzymatic reaction.
The amount of L-His-L-Leu was measured as angiotensin II produced by the enzymatic reaction. Briefly, 10 μl of the reaction mixture and 10 μl of 1% orthophthalaldehyde solution dissolved in methanol were mixed with 100 μl of 2 mol/1000 ml NaOH and kept at room temperature. The reaction was then stopped by adding 10 μl of 6 mol/1000 ml HCl. Finally, the fluorescence induced by the reaction was measured using in a photometer with an excitation wavelength of 355 nm and an emission wavelength of 460 nm. Chymase inhibitory activities of test compounds were expressed as 50% inhibitory concentration (IC50).

monkey chymase = biological target: T2, monkey chymase (Macaca fascicularis, UniProt P56435); assay: Monkey chymase inhibitory activity (in vitro, angiotensin I substrate); format: biochemical; conditions: for IC50: chymase purified from monkey cheek pouch and stomach, substrate angiotensin I, 37° C., read-out: Monkey Chymase Inhibition (IC50:nM)
T2 construct: chymase was extracted from homogenized monkey cheek pouch and stomach; from tissue; host or cells: monkey cheek pouch and stomach
T2 sequence (P56435 22-247): T1 sequence (P23946 22-247) with F29S, A44V, E63K, D159Y, S201L, Q221K
Experimental: as §1
Preparation of Monkey Chymase
Chymase was purified from monkey cheek pouch and stomach in the following manner.
Briefly, chymase was extracted from homogenized monkey cheek pouch and stomach with 0.01 mol/1000 ml sodium phosphate buffer, pH 7.4, containing 2 mol/1000 ml KCl and 0.1% Nonidet P-40 (Amresco Inc.). The solution containing chymase was applied to a heparin actigel column, and the chymase-rich fractions were collected.
as §2
as §3, with “Briefly,” for “The chymase inhibitory activities of compounds I-A of this invention were measured according to the following method. Briefly,”
The amount of L-His-L-Leu was measured as angiotensin II produced by the enzymatic reaction. Briefly, 10 μl of the reaction mixture and 10 μl of 1% orthophthalaldehyde solution dissolved in methanol were mixed with 100 μl of 2 mol/1000 ml NaOH and kept at room temperature. The reaction was then stopped by adding 10 μl of 6 mol/1000 ml HCl.

in vivo = conditions: male, ddy, mouse, po

Row | SMILES | IC50 (human chymase) [nM] | IC50 (monkey chymase) [nM] | also measured
1 | CC(C)[C@H](NC(=O)c1ccc2c(c1)no[n+]2[O-])C(=O)N1CCC[C@H]1C(=O)NC(Cc1ccc2ccccc2c1)C(=O)C(F)(F)F (stereo partly drawn) [I-A-53] | 69 | 31 | 
2 | CC(C)[C@H](NC(=O)c1ccc2c(c1)no[n+]2[O-])C(=O)N1CCC[C@H]1C(=O)NC(Cc1ccccc1)C(=O)C(F)(F)F (stereo partly drawn) [I-A-54] | 90 | 42 | 
3 | CC(C)[C@H](NC(=O)c1ccc2c(c1)no[n+]2[O-])C(=O)N1CCC[C@H]1C(=O)NC(Cc1csc2ccccc12)C(=O)C(F)(F)F (stereo partly drawn) [I-A-52] | 57 | 31 | 
4 | Cc1nnsc1C(=O)N[C@H](C(=O)N1CCC[C@H]1C(=O)NC(Cc1cc2ccccc2s1)C(=O)C(F)(F)F)C(C)C (stereo partly drawn) [I-A-97] | 75 | 59 | 
5 | CC(C)[C@H](NC(=O)c1ccoc1)C(=O)N1CCC[C@H]1C(=O)NC(Cc1ccc2ccccc2c1)C(=O)C(F)(F)F (stereo partly drawn) [I-A-63] | 92 | 150 | 
6 | Cc1nnsc1C(=O)N[C@H](C(=O)N1CCC[C@H]1C(=O)NC(Cc1ccccc1)C(=O)C(F)(F)F)C(C)C (stereo partly drawn) [I-A-96] | 77 | 50 | 
7 | Cc1noc(C)c1C(=O)N[C@H](C(=O)N1CCC[C@H]1C(=O)NC(CC1CCCCC1)C(=O)C(F)(F)F)C(C)C (stereo partly drawn) [I-A-16] |  | 110 | 
8 | Cc1nsc(C)c1C(=O)N[C@H](C(=O)N1CCC[C@H]1C(=O)NC(Cc1cc2ccccc2s1)C(=O)C(F)(F)F)C(C)C (stereo partly drawn) [I-A-94] |  | 15 | 
9 | CC(C)[C@H](NC(=O)CN1CCN(CC(=O)OC(C)(C)C)C1=O)C(=O)N1CCC[C@H]1C(=O)NC(Cc1cc2ccccc2s1)C(=O)C(F)(F)F (stereo partly drawn) [I-A-86] |  | 210 | 
10 | CC(C)[C@H](NC(=O)c1ccc2snnc2c1)C(=O)N1CCC[C@H]1C(=O)NC(Cc1csc2ccccc12)C(=O)C(F)(F)F (stereo partly drawn) [I-A-55] |  | 63 | 
11 | Cc1noc(C)c1C(=O)N[C@H](C(=O)N1CCC[C@H]1C(=O)NC(Cc1ccc(Cl)cc1)C(=O)C(F)(F)F)C(C)C (stereo partly drawn) [I-A-43] |  | 140 | 
12 | CC(C)[C@H](NC(=O)c1ccc2nonc2c1)C(=O)N1CCC[C@H]1C(=O)NC(Cc1cc2ccccc2s1)C(=O)C(F)(F)F (stereo partly drawn) [I-A-95] | 95 | 47 | 
13 | CNC1CCN(C(=O)N[C@H](C(=O)N2CCC[C@H]2C(=O)N[C@@H](Cc2ccccc2)C(=O)C(F)(F)F)C(C)C)CC1 [Reference compound (A), [(2S)-1-((2S)-3-methyl-2-{[4-(methylamino)piperidyl]carbonylamino}butanoyl)pyrrolidin-2-yl]-N-[(1S)-3,3,3-trifluoro-2-oxo-1-benzylpropyl]carboxamide hydrochloride, reference compound] | 1200 | 1600 | inhibitory activity on human chymase (in words) (human chymase; summary of Table 14): very low chymase inhibitory activity; inhibitory activity on monkey chymase (in words) (monkey chymase; summary of Table 13): very low chymase inhibitory activity
14 | CC(C)[C@H](NC(=O)Cn1ccc(=O)n(CC(=O)O)c1=O)C(=O)N1CCC[C@H]1C(=O)NC(Cc1ccc(Cl)cc1)C(=O)C(F)(F)F (stereo partly drawn) [I-A-89] |  | 150 | 
15 | Cc1noc(C)c1C(=O)N[C@H](C(=O)N1CCC[C@H]1C(=O)NC(Cc1ccc(O)cc1)C(=O)C(F)(F)F)C(C)C (stereo partly drawn) [I-A-28] |  | 54 | 
16 | COc1ccc(CC(NC(=O)[C@@H]2CCCN2C(=O)[C@@H](NC(=O)c2c(C)noc2C)C(C)C)C(=O)C(F)(F)F)cc1 (stereo partly drawn) [I-A-37] |  | 95 | 

The next lines start with results.

Row | IC50 (human chymase) [nM] | IC50 (monkey chymase) [nM] | SMILES | also measured
17 | 96 | 73 | CC(C)[C@H](NC(=O)c1ccoc1)C(=O)N1CCC[C@H]1C(=O)NC(Cc1csc2ccccc12)C(=O)C(F)(F)F (stereo partly drawn) [I-A-64] | 
18 | 57 | 12 | CC[C@@H](C)[C@H](NC(=O)c1c(C)noc1C)C(=O)N1CCC[C@H]1C(=O)N[C@@H](Cc1csc2ccccc12)C(=O)C(F)(F)F [I-A-4, N-[1-((1R)-1-methylpropyl)(1S)-2-((2S)-2-{N-[(1S)-1-(benzo[b]thiophen-3-ylmethyl)-3,3,3-trifluoro-2-oxopropyl]carbamoyl}pyrrolidinyl)-2-oxoethyl](3,5-dimethylisoxazol-4-yl)carboxamide] | concentration at 1 h (in vivo): 940 ng/mL
19 | 50 | 9.3 | CC[C@H](NC(=O)c1c(C)noc1C)C(=O)N1CCC[C@H]1C(=O)N[C@@H](Cc1csc2ccccc12)C(=O)C(F)(F)F [I-A-3, N-[(1S)-2-((2S)-2-{N-[(1S)-1-(benzo[b]thiophen-3-ylmethyl)-3,3,3-trifluoro-2-oxopropyl]carbamoyl}pyrrolidinyl)-1-ethyl-2-oxoethyl](3,5-dimethylisoxazol-4-yl)carboxamide] | concentration at 1 h (in vivo): 320 ng/mL
20 | 83 | 54 | Cc1noc(C)c1C(=O)N[C@H](C(=O)N1CCC[C@H]1C(=O)N[C@@H](Cc1ccc2ccccc2c1)C(=O)C(F)(F)F)C(C)C [I-A-2, N-[(1S)-2-((2S)-2-{N-[(1S)-3,3,3-trifluoro-1-(2-naphthylmethyl)-2-oxopropyl]carbamoyl}pyrrolidinyl)-1-(methylethyl)-2-oxoethyl]-(3,5-dimethylisoxazol-4-yl)carboxamide] | concentration at 1 h (in vivo): 2700 ng/mL
21 |  | 170 | Cc1noc(C)c1C(=O)N[C@H](C(=O)N1CCC[C@H]1C(=O)NC(Cc1ccccc1C(F)(F)F)C(=O)C(F)(F)F)C(C)C (stereo partly drawn) [I-A-46] | 
22 |  | 44 | Cc1noc(C)c1C(=O)N[C@H](C(=O)N1CCC[C@H]1C(=O)NC(Cc1ccccc1)C(=O)C(F)(F)F)C(C)C (stereo partly drawn) [I-A-26] | 
23 |  | 34 | Cc1onc(-c2ccccc2)c1C(=O)N[C@H](C(=O)N1CCC[C@H]1C(=O)NC(Cc1csc2ccccc12)C(=O)C(F)(F)F)C(C)C (stereo partly drawn) [I-A-7] | 
24 |  | 98 | Cc1nc(C)c(C(=O)N[C@H](C(=O)N2CCC[C@H]2C(=O)NC(Cc2csc3ccccc23)C(=O)C(F)(F)F)C(C)C)o1 (stereo partly drawn) [I-A-69] | 
25 |  | 82 | Cc1noc(C)c1C(=O)N[C@H](C(=O)N1CCC[C@H]1C(=O)NC(Cc1cccc2ccccc12)C(=O)C(F)(F)F)C(C)C (stereo partly drawn) [I-A-15] | 
26 |  | 37 | Cc1nc(C)c(C(=O)N[C@H](C(=O)N2CCC[C@H]2C(=O)NC(Cc2csc3ccccc23)C(=O)C(F)(F)F)C(C)C)s1 (stereo partly drawn) [I-A-65] | 
27 |  | 33 | Cc1noc(C)c1C(=O)N[C@H](C(=O)N1CCC[C@H]1C(=O)NC(Cc1csc2ccccc12)C(=O)C(F)(F)F)C1CCCCC1 (stereo partly drawn) [I-A-6] | 
28 |  | 61 | Cc1noc(C)c1C(=O)N[C@H](C(=O)N1CCC[C@H]1C(=O)NC(Cc1coc2ccccc12)C(=O)C(F)(F)F)C(C)C (stereo partly drawn) [I-A-9] | 

— US6852744B2, “Pyrrolidine derivatives and their use as chymase inhibitor” (Dainippon Pharmaceutical Co., Ltd., priority 2000, dated 2005)
